Test results as given in patent publication US12371428B2 (Exelixis, Inc., priority 2019, dated 2025).

How the values were obtained:
[1] = biological target: Human MET (residues 956-1390) (Homo sapiens (Human), UniProt P08581); test: Human Met kinase assay, HTRF KinEase (Example D-2); format: biochemical; conditions: protocol of Example D-2 (other compounds); read-out: c-Met IC50
Outline: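 MET kinase domain (956-1390), 0.1 ng/well, in buffer with 5 mM MgCl2, 1 mM DTT and 1 mM MnCl2, phosphorylated a biotinylated peptide at ATP Km for 40 min at RT; 10 concentrations, 3% DMSO final. EDTA-stopped HTRF read after 60 min; IC50 from a 4-parameter logistic fit.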

[2] = biological target: Mer (phospho-Mer, MERTK-transfected 293A cells) (Homo sapiens (Human), UniProt Q12866); test: Mer autophosphorylation ELISA in transient transfected 293A cells (Example H); format: cell-based; conditions: cellular activity; Mer autophosphorylation ELISA in transient transfected 293A cells
Outline: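 IC50 from phospho-Mer ELISA of MERTK-transfected 293A cell lysates after 1 h treatment with serially diluted compound in serum-free medium.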

Sequence of Mer (phospho-Mer, MERTK-transfected 293A cells) (Q12866 21-999): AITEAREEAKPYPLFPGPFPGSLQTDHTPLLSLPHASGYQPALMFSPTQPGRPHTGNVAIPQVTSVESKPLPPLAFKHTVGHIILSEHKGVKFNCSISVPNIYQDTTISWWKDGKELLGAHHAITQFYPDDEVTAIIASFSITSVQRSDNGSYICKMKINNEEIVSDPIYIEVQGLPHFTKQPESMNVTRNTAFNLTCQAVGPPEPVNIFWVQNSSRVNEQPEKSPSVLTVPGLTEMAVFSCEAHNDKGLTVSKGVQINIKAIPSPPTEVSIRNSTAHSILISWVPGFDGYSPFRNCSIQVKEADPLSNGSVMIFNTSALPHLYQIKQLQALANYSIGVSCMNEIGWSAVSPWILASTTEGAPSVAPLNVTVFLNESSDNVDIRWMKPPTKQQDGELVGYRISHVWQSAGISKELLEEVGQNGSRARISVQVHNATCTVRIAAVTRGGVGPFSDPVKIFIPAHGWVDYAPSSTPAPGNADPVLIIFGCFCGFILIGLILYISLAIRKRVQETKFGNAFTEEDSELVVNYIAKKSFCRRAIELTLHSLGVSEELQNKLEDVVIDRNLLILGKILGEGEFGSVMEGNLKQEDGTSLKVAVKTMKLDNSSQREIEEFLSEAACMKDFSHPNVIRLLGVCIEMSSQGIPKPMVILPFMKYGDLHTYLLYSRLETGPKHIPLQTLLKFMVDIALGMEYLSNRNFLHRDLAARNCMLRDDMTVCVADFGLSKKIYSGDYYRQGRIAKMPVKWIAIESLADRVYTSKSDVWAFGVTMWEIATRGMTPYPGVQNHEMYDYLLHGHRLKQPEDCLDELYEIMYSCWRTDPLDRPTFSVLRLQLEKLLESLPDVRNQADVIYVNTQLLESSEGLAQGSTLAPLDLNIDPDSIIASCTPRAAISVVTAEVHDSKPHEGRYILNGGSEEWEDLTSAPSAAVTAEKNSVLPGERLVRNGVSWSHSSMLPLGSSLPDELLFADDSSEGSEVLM
Sequence of Human MET (residues 956-1390) (P08581 956-1390): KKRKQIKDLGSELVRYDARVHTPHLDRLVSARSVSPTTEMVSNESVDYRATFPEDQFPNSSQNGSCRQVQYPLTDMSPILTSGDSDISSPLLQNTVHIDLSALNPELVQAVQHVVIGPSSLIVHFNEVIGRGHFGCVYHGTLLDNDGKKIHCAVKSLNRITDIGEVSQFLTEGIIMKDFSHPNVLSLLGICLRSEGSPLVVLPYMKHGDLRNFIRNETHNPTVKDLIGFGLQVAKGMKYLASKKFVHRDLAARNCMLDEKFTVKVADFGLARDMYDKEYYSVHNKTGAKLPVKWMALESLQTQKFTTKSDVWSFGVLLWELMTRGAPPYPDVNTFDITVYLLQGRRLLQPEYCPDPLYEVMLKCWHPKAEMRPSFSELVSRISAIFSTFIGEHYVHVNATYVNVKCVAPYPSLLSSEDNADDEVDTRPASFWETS

COc1cc2nccc(Oc3ccc(NC(=O)c4cn(C5CC5)c(C)c(-c5ccc(F)cc5)c4=O)cc3F)c2nc1OC [Compound 433, 1-cyclopropyl-N-[4-[(6,7-dimethoxy-1,5-naphthyridin-4-yl)oxy]-3-fluorophenyl]-5-(4-fluorophenyl)-6-methyl-4-oxopyridine-3-carboxamide]
IC50 [1]: < 100 nM | IC50 [2]: < 100 nM

COc1cc2nccc(Oc3ccc(NC(=O)c4cnc(C)c(-c5ccc(F)cc5)c4O)cc3)c2nc1OC(C)C [Compound 413, 5-(4-fluorophenyl)-4-hydroxy-N-[4-[(7-methoxy-6-propan-2-yloxy-1,5-naphthyridin-4-yl)oxy]phenyl]-6-methylpyridine-3-carboxamide]
IC50 [1]: < 100 nM | IC50 [2]: < 100 nM

COc1cc2nccc(Oc3ccc(NC(=O)c4cn(C)c(C)c(-c5ccc(F)cc5)c4=O)cc3)c2nc1OC [Compound 65, N-[4-[(6,7-Dimethoxy-1,5-naphthyridin-4-yl)oxy]phenyl]-5-(4-fluorophenyl)-1,6-dimethyl-4-oxopyridine-3-carboxamide]
IC50 [1]: < 100 nM | IC50 [2]: < 100 nM

COc1cc2nccc(Oc3ccc(NC(=O)c4nn(C)c(C)c(-c5ccc(F)cc5)c4=O)cc3F)c2nc1OC [Compound 92, N-[4-[(6,7-Dimethoxy-1,5-naphthyridin-4-yl)oxy]-3-fluorophenyl]-5-(4-fluorophenyl)-1,6-dimethyl-4-oxopyridazine-3-carboxamide]
IC50 [1]: < 100 nM | IC50 [2]: < 100 nM

COc1ccc2nccc(Oc3ccc(NC(=O)c4n[nH]c(C)c(-c5ccc(F)cc5)c4=O)cc3F)c2n1 [Compound 89, N-[3-Fluoro-4-[(6-methoxy-1,5-naphthyridin-4-yl)oxy]phenyl]-5-(4-fluorophenyl)-6-methyl-4-oxo-1H-pyridazine-3-carboxamide]
IC50 [1]: < 100 nM | IC50 [2]: < 100 nM

Cc1cc(F)ccc1-c1c(C)ncc(C(=O)Nc2ccc(Oc3ccnc4cc(C)c(F)nc34)c(F)c2)c1O [Compound 427, N-[3-fluoro-4-[(6-fluoro-7-methyl-1,5-naphthyridin-4-yl)oxy]phenyl]-5-(4-fluoro-2-methylphenyl)-4-hydroxy-6-methylpyridine-3-carboxamide]
IC50 [1]: 100 to 300 nM | IC50 [2]: < 100 nM

Cc1cc2nccc(Oc3ccc(NC(=O)c4cnc(C)c(-c5ccc(F)cc5)c4O)cc3F)c2nc1OCCCN1CCOCC1 [Compound 438, N-[3-fluoro-4-[[7-methyl-6-(3-morpholin-4-ylpropoxy)-1,5-naphthyridin-4-yl]oxy]phenyl]-5-(4-fluorophenyl)-4-hydroxy-6-methylpyridine-3-carboxamide]
IC50 [1]: < 100 nM | IC50 [2]: < 100 nM

Cc1cc(F)ccc1-c1c(C)nc(C)c(C(=O)Nc2ccc(Oc3ccnc4cc(C)c(F)nc34)c(F)c2)c1O [Compound 428, N-[3-fluoro-4-[(6-fluoro-7-methyl-1,5-naphthyridin-4-yl)oxy]phenyl]-5-(4-fluoro-2-methylphenyl)-4-hydroxy-2,6-dimethylpyridine-3-carboxamide]
IC50 [1]: < 100 nM | IC50 [2]: < 100 nM

COc1cnc2c(Oc3ccc(NC(=O)c4cnc(C)c(-c5c(C)cc(F)cc5C)c4O)cc3F)ccnc2c1 [Compound 417, 5-(4-fluoro-2,6-dimethylphenyl)-N-[3-fluoro-4-[(7-methoxy-1,5-naphthyridin-4-yl)oxy]phenyl]-4-hydroxy-6-methylpyridine-3-carboxamide]
IC50 [1]: < 100 nM | IC50 [2]: 100 to 300 nM

COc1cc2nccc(Oc3ccc(NC(=O)c4c(C)n(C)cc(-c5ccc(F)cc5)c4=O)cc3F)c2nc1OC [Compound 81, N-[4-[(6,7-Dimethoxy-1,5-naphthyridin-4-yl)oxy]-3-fluorophenyl]-5-(4-fluorophenyl)-1,2-dimethyl-4-oxopyridine-3-carboxamide]
IC50 [1]: < 100 nM | IC50 [2]: < 100 nM

COc1cc2nccc(Oc3ncc(NC(=O)c4cn(-c5ccn(C)n5)cc(-c5ccc(F)cc5)c4=O)cc3F)c2cc1OC [Compound 402, N-[6-(6,7-dimethoxyquinolin-4-yl)oxy-5-fluoropyridin-3-yl]-5-(4-fluorophenyl)-1-(1-methylpyrazol-3-yl)-4-oxopyridine-3-carboxamide]
IC50 [1]: < 100 nM | IC50 [2]: < 100 nM

COc1cc2nccc(Oc3ccc(NC(=O)c4n[nH]c(C)c(-c5ccc(F)cc5)c4=O)cc3F)c2nc1OC [Compound 88, N-[4-[(6,7-Dimethoxy-1,5-naphthyridin-4-yl)oxy]-3-fluorophenyl]-5-(4-fluorophenyl)-6-methyl-4-oxo-1H-pyridazine-3-carboxamide]
IC50 [1]: < 100 nM | IC50 [2]: < 100 nM

COc1ccc2nccc(Oc3ccc(NC(=O)c4c(C)nc(C)c(-c5ccc(F)cc5)c4O)cc3F)c2n1 [Compound 67, N-[3-Fluoro-4-[(6-methoxy-1,5-naphthyridin-4-yl)oxy]phenyl]-5-(4-fluorophenyl)-4-hydroxy-2,6-dimethylpyridine-3-carboxamide]
IC50 [1]: < 100 nM | IC50 [2]: < 100 nM

COc1cc2nccc(Oc3ccc(NC(=O)c4c5n(cc(-c6ccc(F)cc6)c4=O)CCC5)cc3)c2nc1OC [Compound 407, N-[4-[(6,7-dimethoxy-1,5-naphthyridin-4-yl)oxy]phenyl]-6-(4-fluorophenyl)-7-oxo-2,3-dihydro-1H-indolizine-8-carboxamide]
IC50 [1]: < 100 nM | IC50 [2]: < 100 nM

COc1cc2nccc(Oc3ccc(NC(=O)c4cn(C5CC5)c(C)c(-c5ccc(F)cc5)c4=O)cc3)c2nc1OC [Compound 434, 1-cyclopropyl-N-[4-[(6,7-dimethoxy-1,5-naphthyridin-4-yl)oxy]phenyl]-5-(4-fluorophenyl)-6-methyl-4-oxopyridine-3-carboxamide]
IC50 [1]: < 100 nM | IC50 [2]: < 100 nM

COCCOc1cc2nccc(Oc3ccc(NC(=O)c4c(C)nc(C)c(-c5ccc(F)cc5)c4O)cc3F)c2nc1OC [Compound 432, N-[3-fluoro-4-[[6-methoxy-7-(2-methoxyethoxy)-1,5-naphthyridin-4-yl]oxy]phenyl]-5-(4-fluorophenyl)-4-hydroxy-2,6-dimethylpyridine-3-carboxamide]
IC50 [1]: < 100 nM | IC50 [2]: < 100 nM

COc1cc2nccc(Oc3ccc(NC(=O)c4cn(C)c(C#N)c(-c5ccc(F)cc5)c4=O)cc3F)c2nc1OC [Compound 77, 6-Cyano-N-[4-[(6,7-dimethoxy-1,5-naphthyridin-4-yl)oxy]-3-fluorophenyl]-5-(4-fluorophenyl)-1-methyl-4-oxopyridine-3-carboxamide]
IC50 [1]: < 100 nM | IC50 [2]: < 100 nM

C=Cc1cc2nccc(Oc3ccc(NC(=O)c4cnc(C)c(-c5ccc(F)cc5C)c4O)cc3F)c2nc1OC [Compound 423, N-[4-[(7-ethenyl-6-methoxy-1,5-naphthyridin-4-yl)oxy]-3-fluorophenyl]-5-(4-fluoro-2-methylphenyl)-4-hydroxy-6-methylpyridine-3-carboxamide]
IC50 [1]: 100 to 300 nM | IC50 [2]: < 100 nM

COc1cc2nccc(Oc3ccc(NC(=O)c4cn(C)c(C)c(-c5ccc(F)cc5C)c4=O)cc3F)c2nc1OC [Compound 75, N-[4-[(6,7-Dimethoxy-1,5-naphthyridin-4-yl)oxy]-3-fluorophenyl]-5-(4-fluoro-2-methylphenyl)-1,6-dimethyl-4-oxopyridine-3-carboxamide]
IC50 [1]: < 100 nM | IC50 [2]: < 100 nM

COc1cnc2c(Oc3ccc(NC(=O)c4ccc(C)n(-c5ccc(F)cc5)c4=O)cc3F)ccnc2c1 [Compound 83, N-[3-Fluoro-4-[(7-methoxy-1,5-naphthyridin-4-yl)oxy]phenyl]-1-(4-fluorophenyl)-6-methyl-2-oxopyridine-3-carboxamide]
IC50 [1]: < 100 nM | IC50 [2]: < 100 nM

CCc1cnc2c(Oc3ccc(NC(=O)c4cnc(C)c(-c5ccc(F)cc5)c4O)cc3F)ccnc2c1 [Compound 418, N-[4-[(7-ethyl-1,5-naphthyridin-4-yl)oxy]-3-fluorophenyl]-5-(4-fluorophenyl)-4-hydroxy-6-methylpyridine-3-carboxamide]
IC50 [1]: < 100 nM | IC50 [2]: < 100 nM

CCc1cc2nccc(Oc3ccc(NC(=O)c4cnc(C)c(-c5ccc(F)cc5)c4O)cc3F)c2nc1OC [Compound 420, N-[4-[(7-ethyl-6-methoxy-1,5-naphthyridin-4-yl)oxy]-3-fluorophenyl]-5-(4-fluorophenyl)-4-hydroxy-6-methylpyridine-3-carboxamide]
IC50 [1]: 100 to 300 nM | IC50 [2]: < 100 nM

COc1cnc2c(Oc3ccc(NC(=O)c4c(C)nc(C)c(-c5ccc(F)cc5)c4O)cc3F)ccnc2c1 [Compound 66, N-[3-Fluoro-4-[(7-methoxy-1,5-naphthyridin-4-yl)oxy]phenyl]-5-(4-fluorophenyl)-4-hydroxy-2,6-dimethylpyridine-3-carboxamide]
IC50 [1]: < 100 nM | IC50 [2]: < 100 nM

COc1cc2nccc(Oc3ncc(NC(=O)c4cn(-c5cnn(C)c5)cc(-c5ccc(F)cc5)c4=O)cc3F)c2cc1OC [Compound 401, N-[6-(6,7-dimethoxyquinolin-4-yl)oxy-5-fluoropyridin-3-yl]-5-(4-fluorophenyl)-1-(1-methylpyrazol-4-yl)-4-oxopyridine-3-carboxamide]
IC50 [1]: < 100 nM | IC50 [2]: < 100 nM

Cc1cc(F)ccc1-c1c(C)nnc(C(=O)Nc2ccc(Oc3ccnc4cc(C)c(F)nc34)c(F)c2)c1O [Compound 430, N-[3-fluoro-4-[(6-fluoro-7-methyl-1,5-naphthyridin-4-yl)oxy]phenyl]-5-(4-fluoro-2-methylphenyl)-4-hydroxy-6-methylpyridazine-3-carboxamide]
IC50 [1]: < 100 nM | IC50 [2]: < 100 nM
